Laboratory results taken from publication PMC9611758, “Bioactive Platinum(IV) Complexes Incorporating Halogenated Phenylacetates” (Molecules, 2022).

Experiments:
H460 lung = test: MTT growth inhibition assay, H460; assay type: cell-based, human
panel of cell lines = test: MTT growth inhibition assay, whole panel of cell lines; assay type: cell-based, human; conditions: 72 h; for GI50: average over the cell lines tested, MTT assay; for cytotoxicity: panel of cell lines, MTT
[1] = Lipophilicity by HPLC (log kw); assay type: physicochemical
From the text: For lipophilicity measurements, HPLC was utilised instead of the traditional shake-flask method, as described previously. Recent studies have also reported the efficiency of HPLC in measuring the lipophilicity of compounds [79, 80]. Each complex was eluted under several isocratic ratios. A standard curve was generated to calculate the log value of the capacity factor (log k) according to Equation (1). Following Equation (2), the percentage of organic solvent (CH3CN) in the mobile phase from each isocratic run was plotted against log kw (Figure S80). Log kw is the chromatographic lipophilicity index or measure of lipophilicity of the complex, so a higher value corresponds to greater lipophilicity. Because the selected axial ligands in this study contain F, Cl, Br, and I, it was only appropriate to determine the influence of the halogens on the overall lipophilicity of the platinum(IV) complexes. […] Conversely, the least lipophilic complex was the phen derivative containing 4-FPA, 3, with a log kw of 0.25. Furthermore, for the phen derivatives, the order of increasing lipophilicity was 3 > 1 > 5 > 7, which corresponds to the order of increasing size of the halogens, F > Cl > Br > I. This pattern was also observed with the 5,6-Me2phen derivatives (4 > 2 > 6 > 8), thereby confirming that the halogens increased the order of lipophilicity accordingly based on their size.
For lipophilicity measurements, analytical HPLC was utilised. Elution profiles were acquired on an Agilent (Melbourne, VIC, Australia) Technologies 1260 Infinity instrument equipped with a Phenomenex Onyx^TM Monolithic C18-reverse phase column (100 × 4.6 mm, 5 µm pore size) (Sydney, NSW, Australia). The mobile phase consisted of solvents, A (0.06% TFA in d.i.H2O) and B (0.06% TFA in CH3CN/d.i.H2O (90:10)). Potassium iodide was used as an external dead volume marker to determine the dead time of the column. Retention times (TR) were measured at varying isocratic ratios ranging from 30 to 36% of solvent B at 1 mL·min^−1 mL. An injection volume of 10 µL was utilised. Capacity factors were determined according to Equation (1):(1) k=(TR−T0)/T0 where k is the capacity factor, TR is the retention time of the analyte, and T0 represents the dead time. A minimum of four different mobile compositions were used for each complex to calculate k. A linear plot was generated of log k against the concentration of CH3CN in the mobile phase to determine the value of log kw expressed by Equation (2):(2) logk=Sφ+logkw where S is the slope, φ is the concentration of the CH3CN in the mobile phase, and log kw represents the capacity factor of the complex in 100% d.i.H2O. Extrapolation of this linear plot to the y-intercept indicates the log kw value.

HT29 colon cells = test: ROS detection assay (DCFH-DA); assay type: cell-based, human; conditions: for ROS production 24 h / ROS production 48 h / ROS production 72 h: HT29 colon cells, treated at GI50 concentration (TBHP positive control 20 μM); for ROS production relative to the control: HT29 colon cells, 24, 48 and 72 h
From the text: Although ROS is required for cancer cell function and progression, it can induce programmed cell death or apoptosis. […] In this study, we report the ROS activity of the studied platinum(IV) complexes, 1–8, together with the individual axial ligands (4-CPA, 4-FPA, 4-BPA, and 4-IPA) in the human cancer cell line, HT29 colon (Figure 19, Table 8, and Figure S95). The ROS potential of their platinum(II) and platinum(IV) precursors in the same cell line is also presented for comparison purposes (Table 8). […] HT29 colon cells were stained by DCFH-DA and then treated with the complexes at each specific GI50 concentration. Upon ROS production, the DCFH-DA produced dichlorodihydrofluorescein, a fluorescent product. The measured fluorescence was, therefore, proportional to the produced ROS.
To investigate the presence of ROS in treated cells, a DCFDA/H2DCFDA-cellular ROS Assay Kit (Abcam, Cambridge, MA, USA) was used, as previously described. A total of 25,000 cells/mL of HT29 cells in DMEM were seeded in 96-well plates. Cells were washed with 1X kit buffer, and then stained with 25 μM 2′,7′-dichlorofluorescein diacetate (DCFH-DA) and incubated for 45 min. DCFH-DA was then removed, and cells were then re-washed with 1X kit buffer, after which phenol red free media was added. Cells were then treated with a GI50 drug concentration for each complex. The plates were directly scanned to measure fluorescence (relative fluorescence units (RFU)) at different time points using the Glo-Max®-Multimode microplate reader (Promega Corporation, Alexandra, VIC, Australia) at an excitation/emission of 485/535 nm. To generate the positive control (20 μM tert-butyl hydroperoxide (TBHP)), cells were washed with 1X kit buffer, and stained with DCFDA (25 μM) for 45 min; this was removed and TBHP was added in phenol red free media, and the resulting solution was scanned as described above.

[2] = Reduction experiments with AsA by 1H-NMR and 1D-195Pt-NMR; assay type: physicochemical; conditions: D2O, 37 °C
From the text: Platinum(IV) complexes are reduced to their platinum(II) precursors by intracellular biological reducing agents such as AsA or GSH in tumour cells. However, the precise mechanism by which reduction occurs is not fully understood. In this paper, reduction reaction experiments were undertaken on the synthesised platinum(IV) complexes, 1–8, with the aid of ^1H-NMR and 1D-^195Pt-NMR spectroscopy. The method used for the reduction reaction experiments was adapted from the literature without modifications. A total of 10 mM PBS (~7.4 pH) was selected as media, and AsA was used as the biological reducing agent to investigate the reduction property of 1–8. Prior to the reduction reaction experiments, a control was prepared where each metal complex was dissolved with PBS in D2O. 1D-^195Pt-NMR was measured within the regions of −2800 and 400 ppm (30 min per region), at 37 °C. This was undertaken to confirm that the PBS would not interfere with the reduction process of the metal complexes. […] The approximate time points for the studied complexes at which an estimated 50% reduction had occurred, in the presence of AsA, as represented by T50%, are summarised in Table 6.
The reduction properties of 1–8 were monitored using ^1H-NMR and 1D-^195Pt-NMR spectroscopy on a 400 MHz Bruker (Melbourne, VIC, Australia) Avance Spectrometer. A sequence of ^1H-NMR experiments was carried out for 1 h at 37 °C, followed by 1D-^195Pt-NMR within the regions of −2800 and 400 ppm. An amount of 10 mM PBS (~7.4 pH) was transferred to a vial and reduced to dryness through rotary evaporation. AsA (~1 mg) was combined with the metal complex (~5 mg) and transferred to the vial containing the dried PBS. A total of 600 µL of D2O was then added to the vial to dissolve the complex, AsA, and the PBS together.

[3] = system: ADDP-resistant ovarian variant; test: MTT growth inhibition assay, ADDP; assay type: cell-based, human; conditions: MTT assay, 72 h
HT29 colon = test: MTT growth inhibition assay, HT29; assay type: cell-based, human; conditions: MTT assay, 72 h
MIA pancreas = test: MTT growth inhibition assay, MIA; assay type: cell-based, human; conditions: 72 h
BE2-C neuroblastoma = test: MTT growth inhibition assay, BE2-C; assay type: cell-based, human; conditions: 72 h
Du145 prostate = test: MTT growth inhibition assay, Du145; assay type: cell-based, human; conditions: MTT assay, 72 h
[4] = system: non-tumour derived MCF10A breast line; test: MTT growth inhibition assay, MCF10A; assay type: cell-based, human; conditions: 72 h
SJ-G2 glioblastoma = test: MTT growth inhibition assay, SJ-G2; assay type: cell-based, human
U87 glioblastoma = test: MTT growth inhibition assay, U87; assay type: cell-based, human; conditions: 72 h
A2780 ovarian = test: MTT growth inhibition assay, A2780; assay type: cell-based, human
A431 skin = test: MTT growth inhibition assay, A431; assay type: cell-based, human
MCF-7 breast = test: MTT growth inhibition assay, MCF-7; assay type: cell-based, human; conditions: MTT assay, 72 h

GI50 (H460 lung; Homo sapiens, NCI-H460, 72 h) [µM]	GI50 (HT29 colon; Homo sapiens, HT-29) [µM]	GI50 (MIA pancreas; Homo sapiens) [µM]	GI50 (BE2-C neuroblastoma; Homo sapiens, BE(2)-C) [µM]	GI50 (Du145 prostate; Homo sapiens, DU-145) [µM]	GI50 (SJ-G2 glioblastoma; Homo sapiens, SJ-G2, 72 h) [µM]	GI50 (U87 glioblastoma; Homo sapiens) [µM]	GI50 (A2780 ovarian; Homo sapiens, A2780, 72 h) [µM]	GI50 (A431 skin; Homo sapiens, A-431, 72 h) [µM]	GI50 (MCF-7 breast; Homo sapiens, MCF7) [µM]	SMILES	ROS production 24 h (HT29 colon cells) [RFU]	ROS production 48 h (HT29 colon cells) [RFU]	ROS production 72 h (HT29 colon cells) [RFU]	GI50 (panel of cell lines; Homo sapiens) [µM]	cytotoxicity (panel of cell lines)	ROS production relative to the control (HT29 colon cells)	GI50 ([3]; Homo sapiens) [µM]	GI50 ([4]; Homo sapiens, MCF-10A) [µM]	also measured
> 50	> 50	> 50	> 50	> 50	> 50	> 50	> 50	> 50	> 50	O=C(O)Cc1ccc(I)cc1 [Complex 4-IPA, 4-iodophenylacetic acid]	137 ± 7	182 ± 12	206 ± 9	> 50	did not demonstrate significant cytotoxicity	increase in ROS production relative to the control	> 50	> 50	–
> 50	> 50	> 50	> 50	> 50	> 50	> 50	> 50	> 50	> 50	O=C(O)Cc1ccc(Cl)cc1 [Complex 4-CPA, 4-chlorophenylacetic acid]	167 ± 13.2	207 ± 14.5	233 ± 10.4	> 50	did not demonstrate significant cytotoxicity	increase in ROS production relative to the control	> 50	> 50	–
> 50	> 50	> 50	> 50	> 50	> 50	> 50	> 50	> 50	> 50	O=C(O)Cc1ccc(F)cc1 [Complex 4-FPA, 4-fluorophenylacetic acid]	197 ± 8	224 ± 11	236 ± 6	> 50	did not demonstrate significant cytotoxicity	increase in ROS production relative to the control	> 50	> 50	–

Second part, the compound before the results:

SMILES	GI50 (H460 lung; Homo sapiens, NCI-H460, 72 h) [µM]	GI50 (HT29 colon; Homo sapiens, HT-29) [µM]	GI50 (MIA pancreas; Homo sapiens) [µM]	GI50 (BE2-C neuroblastoma; Homo sapiens, BE(2)-C) [µM]	GI50 (Du145 prostate; Homo sapiens, DU-145) [µM]	GI50 (SJ-G2 glioblastoma; Homo sapiens, SJ-G2, 72 h) [µM]	GI50 (U87 glioblastoma; Homo sapiens) [µM]	GI50 (A2780 ovarian; Homo sapiens, A2780, 72 h) [µM]	GI50 (A431 skin; Homo sapiens, A-431, 72 h) [µM]	GI50 (MCF-7 breast; Homo sapiens, MCF7) [µM]	ROS production 24 h (HT29 colon cells) [RFU]	ROS production 48 h (HT29 colon cells) [RFU]	ROS production 72 h (HT29 colon cells) [RFU]	GI50 (panel of cell lines; Homo sapiens) [µM]	cytotoxicity (panel of cell lines)	ROS production relative to the control (HT29 colon cells)	GI50 ([3]; Homo sapiens) [µM]	GI50 ([4]; Homo sapiens, MCF-10A) [µM]	also measured
Cc1c(C)c2c3c4c1=CC=C[N]4[Pt+2]([OH])([O]C(=O)Cc1ccc(I)cc1)[N]3C=CC=2.N[C@H]1CCCC[C@@H]1N [Complex 8, [Pt^IV(5,6-Me2phen)(SS-DACH)(4-IPA)(OH)]^2+]	–	–	–	–	–	–	–	–	–	–	345 ± 19.3	406 ± 14	466 ± 13	–	–	–	–	–	GI50 (H460 lung; 72 h): 0.39 ± 0.033 µM; GI50 (panel of cell lines): 0.387 ± 0.05 µM; log kw ([1]; chromatographic lipophilicity index, extrapolated to 100% d.i.H2O): 1.19; log kw (y-intercept of log k versus [CH3CN] % plot, Figure S80) ([1]; linear fit): 1.1909; T50% (approximate time at which 50% reduction occurs) ([2]; 10 mM PBS (~7.4 pH), 1H-NMR): 5 to 10 min; extent of reduction 1 h after the final 1H-NMR experiment (1D-195Pt-NMR) ([2]; PBS, regions −2800 and 400 ppm): complete reduction; GI50 [3]: 0.23 ± 0.015 µM; GI50 (HT29 colon): 0.178 ± 0.031 µM; GI50 (MIA pancreas): 0.3 ± 0.055 µM; GI50 (BE2-C neuroblastoma): 0.65 ± 0.081 µM; GI50 (Du145 prostate): 0.1 ± 0.021 µM; GI50 [4]: 0.26 ± 0.022 µM; GI50 (SJ-G2 glioblastoma; 72 h): 0.52 ± 0.029 µM; GI50 (U87 glioblastoma): 0.9 ± 0.058 µM; GI50 (A2780 ovarian; 72 h): 0.26 ± 0.045 µM; GI50 (A431 skin; 72 h): 0.43 ± 0.16 µM; GI50 (MCF-7 breast): 0.42 ± 0.062 µM
CC(C)(C)OO [TBHP, tert-butyl hydroperoxide]	–	–	–	–	–	–	–	–	–	–	514 ± 3	336 ± 2	332 ± 5	–	–	–	–	–	–
O=C(O)Cc1ccc(Br)cc1 [Complex 4-BPA, 4-bromophenylacetic acid]	> 50	> 50	> 50	> 50	> 50	> 50	> 50	> 50	> 50	> 50	172 ± 9	198 ± 10	222 ± 13	> 50	did not demonstrate significant cytotoxicity	increase in ROS production relative to the control	> 50	> 50	–
